# Assay results as given in US11839613B2, “Pyrimidine derivatives as PGE2 receptor modulators” (IDORSIA PHARMACEUTICALS LTD, priority 2017, dated 2023).
# Legend:
# [1] = target: PTGER4 (EP4) (Homo sapiens (Human), UniProt P35408); test: cell-based
# [2] = target: EP4 (Homo sapiens (Human), UniProt P35408); test: hEP4 cAMP assay (BT549 breast cancer cells, HTRF cAMP); type: cell-based; conditions: antagonistic activity, PGE2 6 nM
# Description: (§1) Human tumor cell lines expressing endogenously either EP4 or EP2 are used and cAMP accumulation in cells upon PGE2 stimulation is monitored. SF295 glioblastoma cells express high endogenous EP2 and no EP4, whereas BT549 breast cancer cells, express high endogenous EP4 levels and very low EP2 levels.
# (§2) As a detection method for cAMP the HTRF (homogeneous time resolved fluorescence) Cisbio kit (HTRF cAMP dynamic 2 kit 20'000 tests Cisbio Cat. #62AM4PEC) was used, which is based on a competitive immunoassay using a Cryptate-labeled anti-cAMP antibody and d2-labeled cAMP. Native cAMP produced by cells or unlabeled cAMP (for the standard curve) compete with exogenously added d2-labeled cAMP (acceptor) for binding to monoclonal anti-cAMP-Eu3+Cryptate (donor). A FRET signal (Fluorescence Resonance Energy Transfer) is obtained only if the labeled anti-cAMP antibody binds the d2 labelled cAMP, thus the specific signal (i.e. energy transfer) is inversely proportional to the concentration of cAMP in the standard or sample.
# (§3) Cells are counted washed and resuspended in assay buffer (AB; HBSS, 20 mM HEPES, 0.2% BSA; 2 mM IBMX).
# Plate is pre-incubated 45 minutes at RT. Subsequently, 2.5 microliters of PGE2 (final conc. 6 nM) are transferred into the assay plate. Plate is incubated 30 minutes at RT.
# [3] = target: EP2 (Homo sapiens (Human), UniProt P43116); test: hEP2 cAMP assay (SF295 glioblastoma cells, HTRF cAMP); type: cell-based; conditions: antagonistic activity
# EP2, sequence (P43116 whole entry): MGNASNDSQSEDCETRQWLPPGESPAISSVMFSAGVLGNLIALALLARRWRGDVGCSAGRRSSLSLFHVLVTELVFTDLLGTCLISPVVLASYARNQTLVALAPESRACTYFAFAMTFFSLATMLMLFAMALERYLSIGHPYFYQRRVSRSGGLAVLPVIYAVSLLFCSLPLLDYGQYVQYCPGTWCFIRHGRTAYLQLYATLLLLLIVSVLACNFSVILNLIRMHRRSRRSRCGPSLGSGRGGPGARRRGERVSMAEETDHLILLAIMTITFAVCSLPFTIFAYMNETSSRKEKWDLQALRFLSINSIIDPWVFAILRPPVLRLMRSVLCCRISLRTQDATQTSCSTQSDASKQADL
# Description: as §1, §2, §3
# Plate is pre-incubated 45 minutes at RT. […] Plate is incubated 30 minutes at RT.
# [4] = target: PTGER2 (EP2) (Homo sapiens (Human), UniProt P43116); test: hEP2 b-arrestin assay (PathHunter HEK 293 PTGER2 b-arrestin cells); type: cell-based; conditions: antagonistic activity, beta-arrestin assay; read-out: hEP2 b-arr IC50
# PTGER2 (EP2), sequence (P43116 whole entry): as above
# Protocol: Plate is pre-incubated 15 minutes at 37° C. Then five microliters of PGE2 (final conc. 5 μM) are transferred into the assay plate. Plate is incubated 120 minutes at 37° C.
# (each concentration is measured in duplicate)
# EP4, sequence (P35408 whole entry): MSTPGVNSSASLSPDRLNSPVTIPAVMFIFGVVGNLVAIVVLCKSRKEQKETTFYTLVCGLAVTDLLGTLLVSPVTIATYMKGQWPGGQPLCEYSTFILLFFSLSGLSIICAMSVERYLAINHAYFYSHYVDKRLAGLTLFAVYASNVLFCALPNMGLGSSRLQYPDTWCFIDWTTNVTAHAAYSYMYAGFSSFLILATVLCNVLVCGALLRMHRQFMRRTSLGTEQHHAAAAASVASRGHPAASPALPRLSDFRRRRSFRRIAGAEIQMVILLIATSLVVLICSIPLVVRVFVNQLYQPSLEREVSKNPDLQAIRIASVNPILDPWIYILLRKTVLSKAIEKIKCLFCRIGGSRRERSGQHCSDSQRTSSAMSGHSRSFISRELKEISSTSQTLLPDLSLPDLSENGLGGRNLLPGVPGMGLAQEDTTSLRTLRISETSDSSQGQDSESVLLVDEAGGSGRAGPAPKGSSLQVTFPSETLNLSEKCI
# PTGER4 (EP4), sequence (P35408 whole entry): as above
Structure (SMILES),IC50 [1] [nM],IC50 [2] [nM],IC50 [3] [nM],IC50 [4] [nM]
"Fc1cc2ncccc2c(F)c1CCNc1cc(-c2ccc3ncccc3c2)ncn1 [Ex 123, [2-(5,7-Difluoro-quinolin-6-yl)-ethyl]-(6-quinolin-6-yl-pyrimidin-4-yl)-amine]",353,97,588,
"CCOc1cc(-c2cc(NCCc3ccc4c(c3)CCC4)ncn2)sc1C(=O)O [Ex 44, 3-Ethoxy-5-[6-(2-indan-5-yl-ethylamino)-pyrimidin-4-yl]-thiophene-2-carboxylic acid]",24,21,283,
"CCOc1cc(-c2cc(NCCc3ccc4ccccc4c3F)ncn2)sc1C(=O)O [Ex 11, 3-Ethoxy-5-{6-[2-(1-fluoro-naphthalen-2-yl)-ethylamino]-pyrimidin-4-yl}-thiophene-2-carboxylic acid]",13,7,277,
"CCOc1cc(-c2cc(NCCc3ccc4ccccc4c3Cl)ncn2)sc1C(=O)O [Ex 90, 5-{6-[2-(1-Chloro-naphthalen-2-yl)-ethylamino]-pyrimidin-4-yl}-3-ethoxy-thiophene-2-carboxylic acid]",26,55,378,
CCOc1cc(-c2cc(NCCc3ccc4ccccc4c3F)ncn2)ccc1OCC(=O)O [Ex 136],29,120,677,
CCOc1cc(-c2cc(NCCc3cc4c(cc3OC)CCCC4)ncn2)ccc1OCC(=O)O [Ex 143],22,128,787,
"CCOc1cc(-c2cc(NCCc3ccc4c(c3)OCCC4)ncn2)sc1C(=O)O [Ex 58, 5-[6-(2-Chroman-7-yl-ethylamino)-pyrimidin-4-yl]-3-ethoxy-thiophene-2-carboxylic acid]",13,30,9390,
"CCOc1cc(-c2cc(NCCc3cc4ccccc4cc3Cl)ncn2)sc1C(=O)O [Ex 62, 5-{6-[2-(3-Chloro-naphthalen-2-yl)-ethylamino]-pyrimidin-4-yl}-3-ethoxy-thiophene-2-carboxylic acid]",16,32,301,
CCOc1cc(-c2cc(NCCc3ccc4ccccc4c3C)ncn2)sc1/C=C/C(=O)O [Ex 130],23,106,423,
CCOc1cc(-c2cc(NCCc3cc4ccccc4cc3OC)ncn2)ccc1C(=O)O [Ex 162],134,158,371,
"CCOc1cc(-c2cc(NCCc3ccc4ccsc4c3)ncn2)ccc1C(=O)O [Ex 167, 4-[6-(2-Benzo[b]thiophen-6-yl-ethylamino)-pyrimidin-4-yl]-2-ethoxy-benzoic acid]",361,166,714,
"CCOc1cc(-c2cc(NCCc3ccc4occc4c3)ncn2)ccc1CC(=O)O [Ex 311, {4-[6-(2-Benzofuran-5-yl-ethylamino)-pyrimidin-4-yl]-2-ethoxy-phenyl}-acetic acid]",310,685,538,
CCOc1cc(-c2cc(NCCc3cc4c(cc3SC)OCCO4)ncn2)ccc1OCC(=O)O [Ex 145],90,134,519,
"CCOc1cc(-c2cc(NCCc3cc4ccccc4cc3OC)ncn2)ccc1OCC(=O)O [Ex 122, (2-Ethoxy-4-{6-[2-(3-methoxy-naphthalen-2-yl)-ethylamino]-pyrimidin-4-yl}-phenoxy)-acetic acid]",19,95,324,
"CCOc1cc(-c2cc(NCCc3ccc4ccccc4c3)ncn2)sc1C(=O)O [Ex 36, 3-Ethoxy-5-[6-(2-naphthalen-2-yl-ethylamino)-pyrimidin-4-yl]-thiophene-2-carboxylic acid]",20,18,557,
"O=C(O)c1ccc(-c2cc(NCCc3ccc4cc[nH]c4c3)ncn2)cc1OC1CCC1 [Ex 278, 2-Cyclobutoxy-4-{6-[2-(1H-indol-6-yl)-ethylamino]-pyrimidin-4-yl}-benzoic acid]",,477,187,281

# The next lines start with the values.
IC50 [1] [nM],IC50 [2] [nM],IC50 [3] [nM],IC50 [4] [nM],Structure (SMILES)
415,1510,12200,,"CCOc1cc(-c2cc(NCCc3ccc4c(c3)OCCC4)ncn2)ccc1CC(=O)O [Ex 332, {4-[6-(2-Chroman-7-yl-ethylamino)-pyrimidin-4-yl]-2-ethoxy-phenyl}-acetic acid]"
31,172,495,,"CCOc1cc(-c2cc(NCCc3cc4cccnc4cc3F)ncn2)sc1C(=N)NO [Example 347, 3-Ethoxy-5-{6-[2-(7-fluoro-quinolin-6-yl)-ethylamino]-pyrimidin-4-yl}-N-hydroxy-thiophene-2-carboxamidine]"
234,248,673,,CCOc1cc(-c2cc(NCCc3ccc4ccn(C)c4c3)ncn2)ccc1OCC(=O)O [Ex 207]
245,217,373,,CCOc1cc(-c2cc(NCCc3cc4ccoc4cc3F)ncn2)ccc1CC(=O)O [Ex 195]
307,267,490,,CSc1cc(-c2cc(NCCc3cc(F)c4c(c3)OCCO4)ncn2)ccc1C(=O)O [Ex 216]
1510,538,688,,CSc1cc(-c2cc(NCCc3cc(C)c4c(c3)OCCO4)ncn2)ccc1C(=O)O [Ex 292]
2120,592,782,,CCOc1cc(-c2cc(NCCc3ccc4scc(C)c4c3)ncn2)ccc1CC(=O)O [Ex 297]
495,351,443,,CCOc1cc(-c2cc(NCCc3ccc4ccn(CC)c4c3)ncn2)sc1C(=O)O [Ex 242]
417,389,282,,"CSc1cc(-c2cc(NCCc3ccc4c(c3)CCCO4)ncn2)ccc1C(=O)O [Ex 257, 4-[6-(2-Chroman-6-yl-ethylamino)-pyrimidin-4-yl]-2-methylsulfanyl-benzoic acid]"
258,200,452,,"CSc1cc(-c2cc(NCCc3ccc4c(c3)CCC4)ncn2)ccc1C(=O)O [Ex 185, 4-[6-(2-Indan-5-yl-ethylamino)-pyrimidin-4-yl]-2-methylsulfanyl-benzoic acid]"
603,568,520,,O=C(O)c1ccc(-c2cc(NCCc3ccc4c(c3)OCC4)ncn2)cc1OC1CCC1 [Ex 295]
,753,247,408,"Fc1cc2ncccc2c(F)c1CCNc1cc(-c2ccc3cnccc3c2)ncn1 [Ex 318, [2-(5,7-Difluoro-quinolin-6-yl)-ethyl]-(6-isoquinolin-6-yl-pyrimidin-4-yl)-amine]"
,920,159,296,CCOc1cc(-c2cc(NCCc3cc4c(cc3C)OCCO4)ncn2)ccc1C(=O)O [Ex 327]
,346,222,134,CCOc1cc(-c2cc(NCCc3cc4c(cc3OC)OCO4)ncn2)ccc1OCC(=O)O [Ex 239]
,272,321,238,CCOc1cc(-c2cc(NCCc3cc4c(cc3OC(F)F)OCO4)ncn2)ccc1OCC(=O)O [Ex 217]
,293,88,142,"CCOc1cc(-c2cc(NCCc3cc4ccoc4cc3F)ncn2)ccc1C(=O)O [Ex 227, 2-Ethoxy-4-{6-[2-(6-fluoro-benzofuran-5-yl)-ethylamino]-pyrimidin-4-yl}-benzoic acid]"
,703,73,134,"CCOc1cc(-c2cc(NCCc3cc4c(cc3OC)OCO4)ncn2)ccc1C(=O)O [Ex 315, 2-Ethoxy-4-{6-[2-(6-methoxy-benzo[1,3]dioxol-5-yl)-ethylamino]-pyrimidin-4-yl}-benzoic acid]"
,368,171,196,Cn1[nH]c(=O)c2ccc(-c3cc(NCCc4ccc5cc[nH]c5c4)ncn3)cc21 [Ex 249]
,369,132,105,CCOc1cc(-c2cc(NCCc3cc4c(cnn4C)cc3OC)ncn2)sc1C(=O)O [Ex 251]
,322,76,29,"CCOc1cc(-c2cc(NCCc3cc4ccoc4cc3OC)ncn2)ccc1OC(C)C(=O)O (stereo not drawn) [Ex 233, 2-(2-Ethoxy-4-{6-[2-(6-methoxy-benzofuran-5-yl)-ethylamino]-pyrimidin-4-yl}-phenoxy)-propionic acid]"
,1040,249,158,"Fc1cc2ncccc2c(F)c1CCNc1cc(-c2ccc3[nH]ccc3c2)ncn1 [Ex 330, [2-(5,7-Difluoro-quinolin-6-yl)-ethyl]-[6-(1H-indol-5-yl)-pyrimidin-4-yl]-amine]"
,887,332,441,CCOc1cc(-c2cc(NCCc3cc4c(cc3OC(F)F)OCO4)ncn2)ccc1C(=O)O [Ex 325]
